Measured values published in patent US10219513B2, “Safening 4-amino-3-chloro-6-(4-chloro-2-fluoro-3-methoxyphenyl)-5-fluoropyridine-2-carboxylic acid compositions in Brassica species and methods of use thereof” (Dow AgroSciences LLC, priority 2016, dated 2019).

Columns and labels:
[1] = test system: Brassica rapa (turnip or Polish canola, BRSRR); assay: Greenhouse postemergence application, visual injury after 20-22 d, BRSRR; conditions: for % Visual Injury Obs / Obs % visual injury: BRSRR
How it was run: (§1)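 Test plants at the 2–3 true-leaf stage were sprayed once postemergence at 187 L/ha with florpyrauxifen-benzyl, alone or combined with partner herbicides/safeners. Herbicidal injury was judged by eye on a 0–100% scale relative to untreated-solvent plants.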

[2] = test system: Brassica napus (all varieties of canola and oilseed rape, BRSNN); assay: Greenhouse postemergence application, visual injury after 20-22 d, BRSNN; conditions: for % Visual Injury Obs / Obs % visual injury: BRSNN
How it was run: as §1

[3] = test system: Brassica napus (Roundup Ready canola, RR-BRSNN); assay: Greenhouse postemergence application, visual injury after 20-22 d, RR-BRSNN; conditions: for % Visual Injury Obs / Obs % visual injury: RR-BRSNN
How it was run: as §1

[4] = test system: Brassica napus (winter oilseed rape, BRSNW); assay: Greenhouse postemergence application, visual injury after 20-22 d, BRSNW; conditions: for % Visual Injury Obs / Obs % visual injury: BRSNW
How it was run: as §1

[5] = test system: Brassica napus (Nexera canola, BRSNN-NEX); assay: Greenhouse postemergence application, visual injury after 20-22 d, BRSNN-NEX; conditions: for % Visual Injury Obs / Obs % visual injury: BRSNN-NEX
How it was run: as §1

[6] = postemergence application, greenhouse, application rate (g ai/ha) varies

O=C(O)c1c(Cl)ccc2cc(Cl)cnc12 [Quinclorac, 3,7-dichloro-8-quinolinecarboxylic acid]
0%: % Visual Injury Obs ([1]; 50 g ai/ha) | % Visual Injury Obs ([1]; 100 g ai/ha) | % Visual Injury Obs ([1]; 200 g ai/ha) | Obs % visual injury ([1]; partner alone 50 g ai/ha) | Obs % visual injury ([1]; partner alone 100 g ai/ha) | Obs % visual injury ([1]; partner alone 200 g ai/ha) | % Visual Injury BRSRR Obs [1, 6] | % Visual Injury BRSRR Obs ([1]; quinclorac 50 g ai/ha alone) | % Visual Injury BRSRR Obs ([1]; quinclorac 100 g ai/ha alone) | % Visual Injury BRSRR Obs ([1]; quinclorac 200 g ai/ha alone) | % Visual Injury Obs ([2]; 50 g ai/ha) | % Visual Injury Obs ([2]; 100 g ai/ha) | % Visual Injury Obs ([2]; 200 g ai/ha) | Obs % visual injury ([2]; partner alone 50 g ai/ha) | Obs % visual injury ([2]; partner alone 100 g ai/ha) | Obs % visual injury ([2]; partner alone 200 g ai/ha) | % Visual Injury BRSNN Obs [2, 6] | % Visual Injury BRSNN Obs ([2]; quinclorac 50 g ai/ha alone) | % Visual Injury BRSNN Obs ([2]; quinclorac 100 g ai/ha alone) | % Visual Injury BRSNN Obs ([2]; quinclorac 200 g ai/ha alone) | % Visual Injury Obs ([3]; 50 g ai/ha) | % Visual Injury Obs ([3]; 100 g ai/ha) | % Visual Injury Obs ([3]; 200 g ai/ha) | Obs % visual injury ([3]; partner alone 50 g ai/ha) | Obs % visual injury ([3]; partner alone 100 g ai/ha) | Obs % visual injury ([3]; partner alone 200 g ai/ha) | % Visual Injury RR-BRSNN Obs [3, 6] | % Visual Injury RR-BRSNN Obs ([3]; quinclorac 50 g ai/ha alone) | % Visual Injury RR-BRSNN Obs ([3]; quinclorac 100 g ai/ha alone) | % Visual Injury RR-BRSNN Obs ([3]; quinclorac 200 g ai/ha alone) | % Visual Injury Obs ([4]; 50 g ai/ha) | % Visual Injury Obs ([4]; 100 g ai/ha) | % Visual Injury Obs ([4]; 200 g ai/ha) | Obs % visual injury ([4]; partner alone 50 g ai/ha) | Obs % visual injury ([4]; partner alone 100 g ai/ha) | Obs % visual injury ([4]; partner alone 200 g ai/ha) | % Visual Injury BRSNW Obs [4, 6] | % Visual Injury BRSNW Obs ([4]; quinclorac 50 g ai/ha alone) | % Visual Injury BRSNW Obs ([4]; quinclorac 100 g ai/ha alone) | % Visual Injury BRSNW Obs ([4]; quinclorac 200 g ai/ha alone) | % Visual Injury Obs ([5]; 50 g ai/ha) | % Visual Injury Obs ([5]; 100 g ai/ha) | % Visual Injury Obs ([5]; 200 g ai/ha) | Obs % visual injury ([5]; partner alone 50 g ai/ha) | Obs % visual injury ([5]; partner alone 100 g ai/ha) | Obs % visual injury ([5]; partner alone 200 g ai/ha) | % Visual Injury BRSNN-NEX Obs [5, 6] | % Visual Injury BRSNN-NEX Obs ([5]; quinclorac 50 g ai/ha alone) | % Visual Injury BRSNN-NEX Obs ([5]; quinclorac 100 g ai/ha alone) | % Visual Injury BRSNN-NEX Obs ([5]; quinclorac 200 g ai/ha alone)
